{"source": "patent US8012929B2", "about": "“Peptides directed for diagnosis and treatment of amyloid-associated diseases” (Tel Aviv University Future Technology Development L.P., priority 2002, dated 2011)", "key": {"[1]": {"assay": "Serum stability, human serum (HPLC)", "format": "in vitro ADME", "conditions": "37° C., 2 and 5 hours", "excerpt": "D-Trp-Aib serum stability—Regardless of administration route, all drugs penetrate and distribute in the body via the blood system. This milieu is based not only on cells and buffering compounds, but also on proteins, carbohydrates, lipid-protein micelles, etc. Serum proteins mainly contain carrier proteins, such as albumin, but also contain many enzymes that might treat the drug as a substrate. Thus, the susceptibility of any drug entering this environment should be evaluated. The stability of D-Trp-Aib spiked into serum was evaluated by analysis of intact sample concentrations at different time points. D-Trp-Aib (250 μg/ml PBS) was incubated with mouse (Harlan Biotech, Israel) or human (obtained from Sheba medical center, Tel Hashomer, Israel) sera or PBS (1:1, 37° C.), and aliquots were analyzed by HPLC analysis at times 0, 2 and 5 hrs. The reaction was stopped and precipitation was effected by the addition of acetonitrile (Baker, Phillipsburg N.J.) and 10% TCA. Following centrifugation (10,000 g, 5 min), Supernatant was transferred to HPLC analysis. Mean amounts of D-Trp-Aib (μg)±s.e.m. were calculated by an internal calibration curve. […]"}, "[2]": {"assay": "Acute toxicity in mice, single i.v. dose", "conditions": "both sexes, mouse, in vivo, iv", "method": "Acute Toxicity in Mice—Single dose LD50 or maximal tolerated dose (MTD) of D-Trp-Aib was evaluated by i.v. administration in mice (Harlan Biotech Israel). The sequential method applied in a stepwise procedure, using a minimum amount of animals. At a preliminary phase, an initial single target dose of 250 mg/kg was administered to a group of one male and one female. Further higher dose levels of 500, 1,000 and 750 mg/kg were administered in view of presence or absence of lethality incidence and/or severe adverse reactions at each applied level. The time intervals between the test groups dosing sessions were at least 24 hours. Following termination of the preliminary phase and based on its findings, a main phase was conducted where 5 males & 5 females were administered the jointly selected dose of 750 mg/kg, the highest dose level that was suspected to produce no mortality."}, "HepG2 cells": {"system": "HepG2 cells", "assay": "Cytotoxicity assay in hepatocytes", "format": "cell-based", "conditions": "up to 2.5×10^−4 M, 3H-Thymidine incorporation and Alamar-Blue assays", "method": "Cytotoxicity assay in hepatocytes—Following culture (37° C. in an atmosphere of 5% CO2 and 100% humidity), HepG2 cells (ATCC Accession No: HB-8065) were seeded at a density of 5000 cells/well in 96 well optical plate (Nunc, Rochester, N.Y.). Culture was maintained in the logarithmic phase throughout the experiment. One day after seeding, peptides were dissolved in DMSO (1:10) and added to the wells to achieve final concentrations of 2.5×10^−4−1×10^−8. Each plate column (8 wells) was used to test one peptide in one concentration. A day following peptide addition, ^3H-Thymidine was added to the cell culture, and two days following addition cells were harvested. ^3H-Thymidine incorporation to the DNA of proliferating cells was measured in Top Count NTX counter (Packard, Quebec, Canada). […] The indicator was incubated for 18 hours and fluorescence was measured with 544 nm excitation/590 nm emission wavelengths. Data was presented as the mean amount of Alamar-Blue fluorescence or ^3H-Thymidine CPM monitored per well. Average was calculated per plate column. For Alamar-Blue signals standard deviation (SD) was calculated, while for ^3H Thymidine signal, standard error (SE) was calculated. […] Equivocal results were analyzed using oneway (ANOVA) with Dunnett Multiple comparison Test."}, "[3]": {"system": "neuronal primary cell cultures", "assay": "Neurotoxicity (5% assay), MTT and Calcein-AM", "format": "cell-based", "method": "Neurotoxicity (5% assay)—Neural cells were grown in Poly-D-Lysine coated 96-well plates. Eighty μl medium containing 48.000 cells/well were added to each well plate containing 80 μl T.I. in the appropriate concentrations, or nutrition medium (control). Plates were kept at 37° C., 95% humidity and 5% CO2. Neurons, which begin to extend processes after a few hours in culture, were maintained in the same medium without change or addition of media for 8 days, until the end of the experiments. For Neurotoxicity, the MTT-assay was effected using a plate-reader (570 nm) for determining the culture viability, as described in Example 49. The MTT assay is based on the ability of a dehydrogenase enzyme from an active mitochondiria to produce a dark blue formazan product from the pale yellow MTT substrate, by cleaving the MTT tetrazolium rings. Since in the MTT-assay sometimes interference between the substance/drug applied and the generation of formazane crystals can be seen, it is necessary to introduce a second evaluation system. Therefore, the viability of cultures was determined with the Calcein-AM assay as well, as described in Neri et al., [Clin. Diagn. Lab Immunol. 1131-1135 (2001)], using an automated fluorescence plate-reader (485/535 nm). Calcein AM is a widely used green fluorescent cell marker, which is membrane-permeant and thus can be introduced into cells via incubation. […]"}, "PC-12 cells": {"system": "PC-12 cells", "assay": "Inhibition of β-amyloid cytotoxicity in PC-12 cells (MTT)", "format": "cell-based", "conditions": "5 μM Aβ1-40, 6.5 μM-150 μM D-Trp-Aib, 24 hr, pre-incubated 21 days", "method": "Prior to incubation with the PC-12 cells, 5× concentrated Aβ1-40 (25 μM) and 5× concentrated D-Trp-Aib were pre-incubated for 21 days.\nCell viability—The MTT-assay is a very sensitive assay measuring the mitochondrial dehydrogenase activity in viable cells. Following incubation, MTT reduction assay was undertaken according to the method described by Mosmann, [J. Immunol. Meth, 55-63 (1983)], cell viability was calculated by subtracting Aβ1-40 samples absorbance from non-Aβ1-40 controls containing the same D-Trp-Aib concentrations."}, "[4]": {"system": "hAPP(751) transgenic mice", "conditions": "mouse, in vivo, ip", "method": "Experimental design—20 (+3 reserves) 4.5 month (±1 week) old male hAPP(751) transgenic mice were divided into 2 treatment groups, a control group—treated with vehicle and an experimental group—treated with D-Trp-Aib. Animals were treated for 120 days with 3 intraperitoneal (i.p.) injections of 1 mg per animal per day 7 of the original 20 animals died during the 4-month experimental period, 4 of them from the control group."}}, "note": "Like-named read-outs stand apart in the source and are kept apart here. Square brackets hold non-standard residues; d marks the D form. Peptide text beside a SMILES is read from it. Aib = CC(C)(N)C(=O)O", "data": [{"smiles": "CC(C)(NC(=O)[C@H](N)Cc1c[nH]c2ccccc12)C(=O)O", "note": "[D-Trp-Aib] (H-[dW]-[Aib]-OH)", "values": [{"measurement": "D-Trp-Aib concentration after incubation in serum", "setting": "[1]", "result": "No decrease"}, {"measurement": "MTD", "setting": "[2]", "result": "> 750", "unit": "mg/kg"}, {"measurement": "MTD", "setting": "[2]; single dose, i.v., read-out: maximal tolerated dose (MTD)", "result": "< 1000", "unit": "mg/kg"}, {"measurement": "cytotoxic effect on HepG2 cells", "setting": "HepG2 cells", "result": "no cytotoxic effect"}, {"measurement": "cytotoxicity towards neuronal primary cell cultures", "setting": "[3]; MTT viability assay and Calcein AM assay", "result": "noncytotoxic"}, {"measurement": "neuronal viability compared to the untreated control", "setting": "[3]; concentration of up to 150 μM", "result": "did not alter neuronal viability"}, {"measurement": "inhibition of β-amyloid cytotoxicity (MTT viability)", "setting": "PC-12 cells", "result": "highly effective in inhibiting the cytotoxicity of β-amyloid"}, {"measurement": "long-term toxicity", "setting": "[4]", "result": "no long-term toxicity"}]}]}
